Patent US20250197799A1, “CELLS DERIVED FROM POLYPEDILUM VANDERPLANKI AND ODOR SENSOR EQUIPPED THEREWITH” (University of Maryland, College Park, priority 2022, published 2025)
Entries after “also recorded” stand apart in the source; their conditions may differ.

Assays:
Orco-Or47a [1] = target: T1, Orco-Or47a (Drosophila melanogaster, UniProt P81921+Q9VNB5); test: Exogenous membrane protein function before drying and after drying-rehydration, Orco-Or47a stable expression cell line; type: cell-based; set-up: remnant residues; expressed in transfected cells; host or cells: Pv11 cells (Polypedilum vanderplanki), CRIS-PITCh knock-in at the Pv.00443 locus downstream of the 121 promoter, Zeocin selection and single-cell sorting
T1 sequence (Q9VNB5 1-486): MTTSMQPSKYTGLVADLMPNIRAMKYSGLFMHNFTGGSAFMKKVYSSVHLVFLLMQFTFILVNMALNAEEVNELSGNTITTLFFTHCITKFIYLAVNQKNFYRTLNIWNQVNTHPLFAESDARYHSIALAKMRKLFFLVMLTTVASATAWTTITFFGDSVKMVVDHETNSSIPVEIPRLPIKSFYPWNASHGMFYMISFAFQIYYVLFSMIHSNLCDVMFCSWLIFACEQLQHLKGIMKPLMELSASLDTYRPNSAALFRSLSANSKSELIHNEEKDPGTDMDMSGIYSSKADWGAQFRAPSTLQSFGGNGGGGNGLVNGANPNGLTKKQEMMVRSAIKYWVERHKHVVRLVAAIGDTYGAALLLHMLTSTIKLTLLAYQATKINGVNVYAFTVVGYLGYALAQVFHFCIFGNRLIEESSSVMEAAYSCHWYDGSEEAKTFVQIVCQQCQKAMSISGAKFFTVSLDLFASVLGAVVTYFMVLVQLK
T1 sequence (P81921 1-385): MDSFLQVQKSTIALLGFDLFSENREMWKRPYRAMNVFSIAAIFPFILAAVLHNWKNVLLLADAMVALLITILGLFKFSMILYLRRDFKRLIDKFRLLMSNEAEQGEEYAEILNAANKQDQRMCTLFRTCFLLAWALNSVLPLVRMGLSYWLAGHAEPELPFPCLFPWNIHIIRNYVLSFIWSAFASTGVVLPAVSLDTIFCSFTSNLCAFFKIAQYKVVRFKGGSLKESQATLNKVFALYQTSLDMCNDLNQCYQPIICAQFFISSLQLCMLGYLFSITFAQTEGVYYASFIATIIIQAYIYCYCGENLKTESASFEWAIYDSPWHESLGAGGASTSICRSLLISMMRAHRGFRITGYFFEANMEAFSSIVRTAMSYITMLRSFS
Experimental: To assess the drought tolerance of the cell lines, the cells were dried according to the following protocol. 4×10^7 Pv11-GCaMP6f stable expression cell lines were centrifuged at 700 g for 3 minutes and the supernatant removed. The precipitated cells were suspended in a 600 mM trehalose mix of 600 mM trehalose and IPL-41 medium at a ratio of 9:1, transferred to a 2 ml flask, and incubated at 25° C. for 48 hours. After 48 hours, the obtained cells were centrifuged at 700 g for 3 minutes and the supernatant was removed. The sedimented cells were suspended in 400 μl of 600 mM trebalose mix, and 40 μl were dropped onto a 35 mm dish. The 35 mm dish was dried for 10 days under conditions of 25° C. and humidity of 10% or less.
6. Assessment of exogenous membrane protein function after drying-rehydration. Using the Orco stable expression cell line and Orco-Or47a stable expression cell line, in order to assess the function of exogenous membrane proteins before drying and after 1 hour of rehydration after drying, fluorescence intensity generated in response to stimulation with VUAA1 (Orco agonist) or pentyl acetate (ligand of Or47a) was measured in the same manner as in 3.2 above.
The fluorescence intensity was digitized from the photograph, and ΔF/F was calculated according to the following formula:
Where the summation Σi=1^n is over the n cells in the image, Fi,after means the fluorescence intensity of the cell i after adding the ligand solution, and Fi,0 means the fluorescence intensity of the cell i before adding the ligand solution.
Specifically, a fluorescence image was taken under the condition in which the excitation wavelength/fluorescence wavelength was 488 nm/525 nm. In the fluorescence intensity quantification, the cells were identified in the photographed image, and the fluorescence intensity (F) was measured for each time. The initial values of fluorescence intensity (F0) were subtracted from the measured fluorescence intensity at each time to obtain the amount of change in fluorescence (ΔF), which was then normalized by dividing by the initial value of fluorescence intensity (F0) to obtain (Δ F/F0). A number of cells n were selected from the captured image, ΔF/F0 were produced for each, and the average value (including standard deviation, SD) of the results was graphed. For example, 25 cells were selected from the captured image, ΔF/F0 for each were produced, and the averaged results (including SD) were graphed. […] The Orco-Or47a stable expression cell line before drying responded to the Orco agonist (VUAA1) and the specific ligand of Or47a, pentyl acetate.

Orco-Or47a [2] = target: T1, Orco-Or47a; test: Response of BAM-immobilized Orco-Or47a stable expression cell line; type: cell-based; set-up: remnant residues; expressed in transfected cells; host or cells: Pv11 cells (Polypedilum vanderplanki), CRIS-PITCh knock-in at the Pv.00443 locus downstream of the 121 promoter, Zeocin selection and single-cell sorting; conditions: Pv11-GCaMP6f-Orco-Or47a stable expression cell line immobilized with BAM
From the text: 8.1 Pv11 cell immobilization. A cell membrane modifier (BAM: Biocompatible Anchor for cell Membrane) was used to fix the stable expression cell line obtained above. BAM consists of a hydrophilic PEG chain, an NHS group, and a hydrophobic oleyl group; by bringing BAM into contact with a collagen-coated dish, the NHS group binds to collagen, and the oleyl group interacts with the cell membrane through hydrophobic interactions, allowing cells to adhere. BAM (SUNBRIGHT OE-040CS, Yuka Sangyo Co., Ltd.) was dissolved in DMSO (Fujifilm Wako Pure Chemical Industries) to a concentration of 10 mM. The 10 mM BAM solution was adjusted to DPBS(-) (Thermo Fisher) to a final concentration of 100 μM, 100 μl was dropped onto a collagen 1-coated 48-well microplate (IWAKI) and incubated at 37° C. for 1 hour. The BAM solution was removed, washed once with DPBS(-) (Thermo Fisher) and five times with MilliQ, and allowed to stand still to evaporate water droplets. The Pv11 cell suspension was centrifuged at 700 g for 3 minutes, the supernatant was removed, the cell pellet was suspended in DPBS(-) (Thermo Fisher) and dropped onto a BAM-coated dish. […]
8.2 Functional confirmation of exogenous membrane proteins in fixed cells. […] Each substance was reacted with each cell in the same manner as in 3.2 above, and the fluorescence intensity was measured. […]

[3] = 1 hour after drying and rehydration, compared to DMSO control

**Q.** What does the source list for `CCc1ccc(NC(=O)CSc2nnc(-c3cccnc3)n2CC)cc1` [VUAA1, N-(4-ethylphenyl)-2-{[4-ethyl-5-(pyridin-3-yl)-4H-1,2,4-triazol-3-yl]sulfanyl}acetamide]?
**A.** response as change in fluorescence intensity (ΔF/F0) (Orco-Or47a [1]; [3]): significant difference in responsiveness; also recorded: fluorescence was observed; response as change in fluorescence intensity (ΔF/F0) (Orco-Or47a [1]; before drying): responded; response (fluorescence intensity) of immobilized cells (Orco-Or47a [2]): responded

**Q.** Which results are given for `CCCCCOC(C)=O` [pentyl acetate]?
**A.** response as change in fluorescence intensity (ΔF/F0) (Orco-Or47a [1]; [3]): significant difference in responsiveness; also recorded: fluorescence was observed; response as change in fluorescence intensity (ΔF/F0) (Orco-Or47a [1]; before drying): responded; response (fluorescence intensity) of immobilized cells (Orco-Or47a [2]): responded
